Counter-ions that a name gives are not always drawn.
These compounds were tested on PRKACA-PRKAR2A interaction (SmBiT-PRKACA / LgBiT-PRKAR2A), protein kinase A. Settings: 0.5 h, 20 µM; inhibitor.
Set-up: NanoLuc complementation counter-screen in cell extract, PRKACA with PRKAR2A, loss of luminescence, detects NanoLuc interference

| Structure (SMILES) | Inh (PKA) |
| --- | --- |
| CC(C(=O)O)C(=O)O [UM0142795:01, Methylmalonate] | -2.942 |

Same assay, conditions: counter-screen for NanoLuc interference, 0.5 h, 20 µM, inhibitor, Inh (PKA)

| Structure (SMILES) | Inh (PKA) |
| --- | --- |
| O=C(Nc1ccc2[nH]nc(-c3ccncc3)c2c1)[C@@H]1CCN(CC(=O)N2CCN(c3ccc(-c4ncccn4)cc3)CC2)C1 [UM0142677:01, SCH772984 HCl] | 18.36% |
| CN1CCN(c2ccc3nc(-c4c(N)c5c(F)cccc5[nH]c4=O)[nH]c3c2)CC1 [UM0142698:01, Dovitinib (TKI258) Lactate] | 21.22% |

Same assay, conditions: counter-screen for NanoLuc interference; 0.5 h, 20 µM; inhibitor

| Structure (SMILES) | Inh (PKA) |
| --- | --- |
| O=C(Nc1cccnc1)c1cc(-c2ccnc(F)c2)ccc1OCc1ccccc1 [UM0142641:01, GSK2578215A] | 10.96% |
| Cc1cc(C)c(S(=O)(=O)n2cc(C)cc2C)c(C)c1 [UM0142646:01, HJC 0350] | 24.94% |
| N[C@@H](CCNCc1ccc(Cl)cc1)C(=O)N1CCCCC1 [UM0142648:01, UAMC 00039 dihydrochloride] | -0.6597% |
| Cn1cc(-c2ccc(F)c(C(F)(F)F)c2)nc1C1CCN(c2ncnc3[nH]ncc23)CC1 [UM0142649:01, LY2584702] | 26.28% |
| CS(=O)(=O)c1ccc(-c2nnc(/C=C/c3nnc(-c4ccc(C#N)cc4)o3)n2-c2ccccc2Cl)nc1 [UM0142653:01, G007-LK] | 3.502% |
| Cc1cc(C)c(CNC(=O)c2cc(-c3ccc(N4CCN(C)CC4)nc3)cc3c2c(C)cn3C(C)C)c(=O)[nH]1 [UM0142656:01, GSK503] | 4.717% |
| C=CC(=O)Nc1cc(Nc2nccc(-c3c[nH]c4ccccc34)n2)c(OC)cc1N(C)CCN(C)C [UM0142657:01, AZ5104] | 4.603% |
| CN(C)S(=O)(=O)c1ccc2c(c1)/C(=C/c1cc3c([nH]1)CCCC3)C(=O)N2 [UM0142659:01, SU6656] | 52.64% |
| Nc1nc(NC2CC2)cc(-c2cccc(Cl)c2Cl)n1 [UM0142662:01, TH588] | 10.71% |
| Cc1cn(-c2cc(NC(=O)c3ccc(C)c(Nc4nccc(-c5cnccn5)n4)c3)cc(C(F)(F)F)c2)cn1 [UM0142663:01, Radotinib(IY-5511)] | 10.62% |
| CNc1cc(-c2cccc(Cl)c2Cl)nc(N)n1 [UM0142665:01, TH287] | 9.555% |
| FC(F)(F)Oc1ccc(-c2ccc3nnc(C(F)(F)F)n3c2)cc1 [UM0142666:01, GS967] | 6.579% |
| CN1CCN(c2ccc(C(=O)Nc3n[nH]c4ccc(Cc5cc(F)cc(F)c5)cc34)c(NC3CCOCC3)c2)CC1 [UM0142673:01, Entrectinib] | 20.65% |
| CNC(=O)c1c(C)oc2cc(Oc3ncnc4cc(OC)c(OC)cc34)ccc12 [UM0142676:01, Fruquintinib(HMPL-013)] | 4.605% |
| Cc1ccc2nc(N)[nH]c(=O)c2c1Sc1ccncc1 [UM0142685:01, Nolatrexed (AG-337)] | 7.912% |
| CC#CC(=O)Nc1ccc2ncnc(Nc3cccc(Br)c3)c2c1 [UM0142687:01, CL-387785 (EKI-785)] | 17.86% |
| O=C(O)C(=O)c1cn(Cc2ccccc2)c2ccc(-c3ccc(OC(F)(F)F)cc3)cc12 [UM0142688:01, Tiplaxtinin(PAI-039)] | 36.69% |
| Nc1ccc(/C=C/C(=O)NCc2cc3cc(-c4ccc(C(=O)N5CCC(F)(F)CC5)cc4)cc(-c4ccc(F)cc4)c3o2)cn1 [UM0142694:01, KPT-9274] | 5.106% |
| N#CC(c1ccnc(NCCc2cccnc2)n1)c1nc2ccccc2s1 (centres unmarked) [UM0142696:01, AS601245] | 54.87% |
| COc1cc2ncnc(Nc3cccc(Cl)c3F)c2cc1OC(=O)N1CCN(C)C[C@H]1C [UM0142700:01, AZD3759] | 7.884% |

| Structure (SMILES) | Inh (PKA) |
| --- | --- |
| CNCC(O)c1ccc(O)cc1 (centres unmarked) [UM0142702:01, Synephrine] | 1.654% |
| O=C(Cc1ccccc1)Nc1nnc(CCSCCc2nnc(NC(=O)Cc3ccccc3)s2)s1 [UM0142712:01, BPTES] | 8.754% |
| CC(=O)c1cc2c(o1)C(=O)c1ccccc1C2=O [UM0142718:01, Napabucasin] | 2.166% |
| Cc1ccc(Nc2ncc3c(n2)N(C)C(=O)N(c2cc(NC(=O)c4cccc(C(F)(F)F)c4)ccc2C)C3)cn1 [UM0142721:01, GNF-7] | 15.96% |
| CC(C)Oc1ccc(-c2nc(-c3cccc4c3CC[C@@H]4NCCO)no2)cc1C#N [UM0142722:01, Ozanimod (RPC1063)] | 8.033% |
| O=C(NCC(=O)N1CCCC1)Nc1ccc2cnccc2c1 [UM0142726:01, SGC707] | 9.797% |
| O=C(Nc1cc(Cl)cc2c1[nH]c1cnccc12)c1cccnc1 [UM0142732:01, PS-1145] | 3.261% |
| COC(=O)c1ccc([C@@H]2c3[nH]c4ccccc4c3C[C@@H](C(=O)OC)N2C(=O)CCl)cc1 [UM0142735:01, RSL3] | 22.95% |
| Cc1c(Cl)cccc1S(=O)(=O)Nc1nc(CC(=O)N2CCN(C)CC2)cs1 [UM0142740:01, BVT 2733] | 1.989% |
| CCOC(=O)COc1ccc(/C=C2\SC(=S)NC2=O)cc1OC [UM0142743:01, IMR-1] | 35.49% |
| COc1ccc(/C=C(\C#N)c2cccnc2)cc1OC [UM0142745:01, RG 13022] | 13.99% |
| Cc1cn(CCN2CCN(c3ccccc3-c3cc(C#N)cc(C(=O)NCCCN4CCCC4)c3)CC2)c2ccccc12 [UM0142746:01, LLY507] | 10.14% |
| Nc1nccc2c1ncn2[C@@H]1O[C@H](CO)[C@@H](O)[C@H]1O [UM0142748:01, 3-Deazaadenosine] | -15.82% |
| Nc1ncc(-c2ccnc(Nc3ccncc3)n2)c(CC2CC2)n1 [UM0142752:01, PIK-III] | 17.17% |
| COc1cc(OCc2cccc(-c3ccccc3)c2C)cc(OC)c1CN1CCCC[C@H]1C(=O)O [UM0142755:01, PD-1/PD-L1 inhibitor 1] | 7.667% |
| CN1CCc2cc(Nc3ncc(C4CC4)c(NCCCNC(=O)C4CCC4)n3)ccc2C1 [UM0142756:01, MRT68921] | 22% |
| O=C(Nc1cnn2ccc(N3CCC[C@@H]3c3cc(F)ccc3F)nc12)N1CC[C@H](O)C1 [UM0142757:01, LOXO-101] | 0.6062% |
| CC(C)(C)C(=O)Oc1ccc(S(=O)(=O)Nc2ccccc2C(=O)NCC(=O)O)cc1 [UM0142761:01, Sivelestat (ONO-5046)] | -0.1491% |
| Cc1ccc2nc(CN(CCN(Cc3nc4ccc(C)cc4[nH]3)Cc3nc4ccc(C)cc4[nH]3)Cc3nc4ccc(C)cc4[nH]3)[nH]c2c1 [UM0142762:01, NSC348884] | 3.32% |
| COc1cc(-c2cn(C)c(=O)c3cnccc23)cc(OC)c1CN(C)C [UM0142765:01, BI-7273] | 0.4975% |

| Structure (SMILES) | Inh (PKA) |
| --- | --- |
| CCCOc1ccc(CCc2nc3cc(-c4c(C)noc4C)ccc3n2CCN2CCOCC2)cc1 [UM0142766:01, PF-CBP1] | 9.037% |
| N=C(N)NN [UM0142771:01, Aminoguanidine hydrochloride] | 0.824% |
| CC(C)SC(=N)N [UM0142772:01, S-Isopropylisothiourea hydrobromide] | 0.4324% |
| CS(=O)(=O)Nc1ccc([N+](=O)[O-])cc1OC1CCCCC1 [UM0142773:01, NS 398] | 50.11% |
| CCCOc1ccccc1-c1nc2[nH]nnc2c(=O)[nH]1 [UM0142774:01, Zaprinast] | 3.478% |
| CC1=Nc2ccc(Cl)cc2S(=O)(=O)N1 [UM0142775:01, Diazoxide] | -0.314% |
| COc1ccc(CCCOC(Cn2ccnc2)c2ccc(OC)cc2)cc1 (centres unmarked) [UM0142776:01, SKF 96365 hydrochloride] | 35.58% |
| CC(N)=NCc1cccc(CN)c1 [UM0142778:01, 1400W dihydrochloride] | -1.118% |
| CN(C)CCCC1(c2ccc(F)cc2)OCc2cc(C#N)ccc21 (centres unmarked) [UM0142779:01, Citalopram hydrobromide] | 0.9875% |
| Nc1ncnc2c1ncn2C1CCCO1 (centres unmarked) [UM0142780:01, SQ 22536] | -2.134% |
| O=C1OC2(c3ccccc31)c1ccc(O)c(O)c1Oc1c2ccc(O)c1O [UM0142786:01, Gallein] | 24.58% |
| C[C@H](NC(=O)c1sccc1OCc1ccc(Cl)cc1)c1ccccc1 [UM0142788:01, AS 1949490] | 58.85% |
| N[C@@H]1C[C@H]1c1ccccc1 [UM0142789:01, Tranylcypromine hydrochloride] | -0.9566% |
| COc1ccc(C[C@H](N)C(=O)N[C@H]2[C@@H](O)[C@H](n3cnc4c(N(C)C)ncnc43)O[C@@H]2CO)cc1 [UM0142790:01, Puromycin dihydrochloride] | -1.723% |
| C=CCNc1ncnc2ccc(Br)cc12 [UM0142792:01, SMER 28] | 2.149% |
| CC(C)(C)c1ccc(S(=O)(=O)NCc2ccc(C(=O)Nc3cccnc3)cc2)cc1 [UM0142793:01, STF 31] | 3.916% |
| O=C(O)[C@@]1(CCCCCCOc2ccc(Cl)cc2)CO1 [UM0142794:01, (R)-(+)-Etomoxir sodium salt] | 1.565% |
| COc1nccnc1NS(=O)(=O)c1ccc(NC(=O)/C=C/c2ccc([N+](=O)[O-])s2)cc1 [UM0142796:01, Necrosulfonamide] | 27.6% |
| COc1cc2c(NC3CCN(C(C)C)CC3)nc(N3CCC(F)(F)CC3)nc2cc1OCCCN1CCCC1 [UM0142799:01, UNC 0642] | 0.7014% |

From publication PMC9995496, “A screen for MeCP2-TBL1 interaction inhibitors using a luminescence-based assay” (Scientific Reports, 2023)
